Data on ten compounds can be found in patent US20250296971A1, “GASTRIC INHIBITORY PEPTIDE RECEPTOR LIGANDS” (priority 2021, published 2025).

In this assay the target is T1, GIPR (CHO-K1-hGIPR cells) (Homo sapiens, UniProt P48546).
T1 construct: host or cells: CHO-K1
T1 sequence (P48546 22-466): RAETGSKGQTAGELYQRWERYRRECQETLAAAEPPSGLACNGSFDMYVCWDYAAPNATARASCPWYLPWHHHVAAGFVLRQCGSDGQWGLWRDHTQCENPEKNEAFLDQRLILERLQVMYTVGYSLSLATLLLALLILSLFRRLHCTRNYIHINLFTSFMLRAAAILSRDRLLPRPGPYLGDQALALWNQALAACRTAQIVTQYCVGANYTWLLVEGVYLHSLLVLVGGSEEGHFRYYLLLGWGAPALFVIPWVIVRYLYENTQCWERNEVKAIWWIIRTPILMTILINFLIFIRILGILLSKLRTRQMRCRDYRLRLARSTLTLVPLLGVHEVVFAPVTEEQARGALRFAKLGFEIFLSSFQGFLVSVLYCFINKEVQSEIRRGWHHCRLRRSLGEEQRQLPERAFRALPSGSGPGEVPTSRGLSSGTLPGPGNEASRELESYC
Nature of the assay: FACS binding assay. The conditions noted are these: competition with 20 nM GIP-057, 4° C., 1 hour, read-out: pIC50 Category (converted). A digest of the protocol:
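Median fluorescence in the APC channel, measured on washed CHO-K1 cells overexpressing human GIPR, was fitted by four-parameter logistic regression against peptide concentration to yield EC50 or IC50 values. Secondary labelling used APC-streptavidin (1 μg/mL, 30 min, ice).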
(In general: Flow cytometry measures light scatter and fluorescence of single cells or particles in a stream.)

*1 amine or outer side, *2 acyl side, *3 side chain or, on linkers, in order; H or OH if unused. Where a SMILES comes first, the peptide text is derived from it. Bridges are numbered along the chain shown (N, C = ends). [ ]: non-standard residue; d: D form. The star is where a group is joined. X5 = NC(=O)[C@H](CCCCNC(=O)CN1CCN(CC(=O)O)CCN(CC(=O)O)CCN(CC(=O)O)CC1)NC(=O)CCC(=O)NCCCOCCOCCOCCCN*; X3 = O=C(O)CN1CCN(CC(=O)O)CCN(CC(=O)NCCCOCCOCCOCCCN*)CCN(CC(=O)O)CC1; DOTA = O=C(O)CN1CCN(CC(=O)O)CCN(CC(=O)*)CCN(CC(=O)O)CC1; Trp(5-Br) = N[C@@H](Cc1c[nH]c2ccc(Br)cc12)C(=O)O; Trp(5-Cl) = N[C@@H](Cc1c[nH]c2ccc(Cl)cc12)C(=O)O; Pyridine(2,6-diCH2) = c1cc(C[*:1])nc(C[*:2])c1; Trp(6-F) = N[C@@H](Cc1c[nH]c2cc(F)ccc12)C(=O)O; Pro(4R-NH2) = N[C@H]1CN[C@H](C(=O)O)C1; mXylylene = c1cc(C[*:1])cc(C[*:2])c1; X7 = c1cc(CSCCN[*:2])cc(C[*:1])c1; Hyp = O=C(O)[C@@H]1C[C@@H](O)CN1; tBuAla = CC(C)(C)C[C@H](N)C(=O)O; NMeD = CN[C@@H](CC(=O)O)C(=O)O; Suc = O=C(CCC(=O)[*:2])[*:1]; Api = NC1(C(=O)O)CCNCC1; Thp = NC1(C(=O)O)CCOCC1; Aib = CC(C)(N)C(=O)O

Consider `CC[C@H](C)[C@@H]1NC(=O)[C@H](CC(C)C)NC(=O)C(C)(C)NC(=O)[C@@H](NC(=O)[C@@H](CC(C)C)NC(=O)[C@H](CCC(=O)O)NC(=O)[C@@H]2CCCN2C(=O)[C@H](Cc2c[nH]c3ccc(Cl)cc23)NC(=O)[C@H](Cc2c[nH]c3cc(F)ccc23)NC(=O)[C@H](CC(=O)O)NC(=O)CCC(=O)NCCCOCCOCCOCCCNC(=O)CN2CCN(CC(=O)O)CCN(CC(=O)O)CCN(CC(=O)O)CC2)CSCc2cccc(c2)CSCCNC1=O` [GIP-104, DOTA-Ttds-Asp-6Fw-5Clw-Pro-Glu-leu-[Cys(3MeBn)-Aib-Leu-Ile-AET]] ({X3-Suc}-D[Trp(6-F)][Trp(5-Cl)]PE[dL]C[Aib]LI; linker 7-C via X7), for which the IC50 is < 10 nM.
Regarding `CC[C@H](C)[C@@H]1NC(=O)[C@H](CC(C)C)NC(=O)C(C)(C)NC(=O)[C@@H](NC(=O)[C@@H](CC(C)C)NC(=O)[C@H](CCC(=O)O)NC(=O)[C@@H]2CCCN2C(=O)[C@H](Cc2c[nH]c3ccc(Br)cc23)NC(=O)[C@H](Cc2c[nH]c3cc(F)ccc23)NC(=O)[C@H](CC(=O)O)NC(=O)CCC(=O)NCCCOCCOCCOCCCNC(=O)CN2CCN(CC(=O)O)CCN(CC(=O)O)CCN(CC(=O)O)CC2)CSCc2cccc(c2)CSCCNC1=O` [GIP-105, DOTA-Ttds-Asp-6Fw-5Brw-Pro-Glu-leu-[Cys(3MeBn)-Aib-Leu-Ile-AET]] ({X3-Suc}-D[Trp(6-F)][Trp(5-Br)]PE[dL]C[Aib]LI; linker 7-C via X7), the IC50 was < 10 nM.
Consider `CC[C@H](C)[C@@H]1NC(=O)[C@H](CC(C)C)NC(=O)C2(CCOCC2)NC(=O)[C@@H](NC(=O)[C@@H](CC(C)C)NC(=O)[C@H](CCC(=O)O)NC(=O)[C@@H]2C[C@@H](O)CN2C(=O)[C@H](Cc2c[nH]c3ccc(Cl)cc23)NC(=O)[C@H](Cc2c[nH]c3ccccc23)NC(=O)CCC(=O)O)CSCc2cccc(n2)CSC[C@@H](C(=O)N[C@@H](CCCCNC(=O)CN2CCN(CC(=O)O)CCN(CC(=O)O)CCN(CC(=O)O)CC2)C(N)=O)NC1=O` [GIP-115, HO-Succinyl-Trp-5Clw-Hyp-Glu-leu-[Cys(2Lut)-Thp-Leu-Ile-Cys]-Lys(DOTA)-NH2] (Suc-W[Trp(5-Cl)][Hyp]E[dL]C[Thp]LICK(DOTA)-NH2; linker 6-10 via Pyridine(2,6-diCH2)), for which the IC50 is < 10 nM.
As to `CC[C@H](C)[C@@H]1NC(=O)[C@H](CC(C)C)NC(=O)C2(CCOCC2)NC(=O)[C@@H](NC(=O)[C@@H](CC(C)C)NC(=O)[C@H](CCC(=O)O)NC(=O)[C@@H]2C[C@@H](O)CN2C(=O)[C@H](Cc2c[nH]c3ccc(Cl)cc23)NC(=O)[C@H](Cc2c[nH]c3ccccc23)NC(=O)CCC(=O)O)CSCc2cccc(n2)CSC[C@@H](C(=O)N[C@H](CCCCNC(=O)CN2CCN(CC(=O)O)CCN(CC(=O)O)CCN(CC(=O)O)CC2)C(N)=O)NC1=O` [GIP-116, HO-Succinyl-Trp-5Clw-Hyp-Glu-leu-[Cys(2Lut)-Thp-Leu-Ile-Cys]-lys(DOTA)-NH2] (Suc-W[Trp(5-Cl)][Hyp]E[dL]C[Thp]LIC[dK](DOTA)-NH2; linker 6-10 via Pyridine(2,6-diCH2)), the IC50 is < 10 nM.
With `CC[C@H](C)[C@@H]1NC(=O)[C@H](CC(C)C)NC(=O)C2(CCN(C(=O)CN3CCN(CC(=O)O)CCN(CC(=O)O)CCN(CC(=O)O)CC3)CC2)NC(=O)[C@@H](NC(=O)[C@@H](CC(C)C)NC(=O)[C@H](CCC(=O)O)NC(=O)[C@@H]2C[C@@H](O)CN2C(=O)[C@H](Cc2c[nH]c3ccc(Cl)cc23)NC(=O)[C@H](Cc2c[nH]c3ccccc23)NC(=O)[C@H](CC(=O)O)NC(C)=O)CSCc2cccc(n2)CSC[C@@H](C(N)=O)NC1=O` [GIP-122, Ac-Asp-Trp-5Clw-Hyp-Glu-leu-[Cys(2Lut)-Apc(DOTA)-Leu-Ile-Cys]-NH2] (Ac-DW[Trp(5-Cl)][Hyp]E[dL]C[Api](DOTA)LIC-NH2; linker 7-11 via Pyridine(2,6-diCH2)) the figure was < 10 nM; with `CC[C@H](C)[C@@H]1NC(=O)[C@H](CC(C)C)NC(=O)C2(CCN(C(=O)CN3CCN(CC(=O)O)CCN(CC(=O)O)CCN(CC(=O)O)CC3)CC2)NC(=O)[C@@H](NC(=O)[C@@H](CC(C)C)NC(=O)[C@H](CCC(=O)O)NC(=O)[C@@H]2C[C@@H](N)CN2C(=O)[C@H](Cc2c[nH]c3ccc(Cl)cc23)NC(=O)[C@H](Cc2c[nH]c3ccccc23)NC(=O)[C@H](CC(=O)O)NC(C)=O)CSCc2cccc(n2)CSC[C@@H](C(N)=O)NC1=O` [GIP-123, Ac-Asp-Trp-5Clw-Tap-Glu-leu-[Cys(2Lut)-Apc(DOTA)-Leu-Ile-Cys]-NH2] (Ac-DW[Trp(5-Cl)][Pro(4R-NH2)]E[dL]C[Api](DOTA)LIC-NH2; linker 7-11 via Pyridine(2,6-diCH2)), < 10 nM; with `CC[C@H](C)[C@@H]1NC(=O)[C@H](CC(C)C)NC(=O)C2(CCOCC2)NC(=O)[C@@H](NC(=O)[C@@H](CC(C)C)NC(=O)[C@H](CCC(=O)O)NC(=O)[C@@H]2C[C@@H](O)CN2C(=O)[C@H](Cc2c[nH]c3ccc(Cl)cc23)NC(=O)[C@H](Cc2c[nH]c3ccccc23)NC(=O)[C@H](CC(=O)O)NC(=O)CN2CCN(CC(=O)O)CCN(CC(=O)O)CCN(CC(=O)O)CC2)CSCc2cccc(n2)CSC[C@@H](C(N)=O)NC1=O` [GIP-125, DOTA-Asp-Trp-5Clw-Hyp-Glu-leu-[Cys(2Lut)-Thp-Leu-Ile-Cys]-NH2] ({DOTA}-DW[Trp(5-Cl)][Hyp]E[dL]C[Thp]LIC-NH2; linker 7-11 via Pyridine(2,6-diCH2)), < 10 nM.
With `CC[C@H](C)[C@@H]1NC(=O)[C@H](CC(C)C)NC(=O)C(C)(C)NC(=O)[C@@H](NC(=O)[C@H](CC(C)C)NC(=O)[C@H](CCC(=O)O)NC(=O)[C@@H]2CCCN2C(=O)[C@H](Cc2c[nH]c3ccccc23)NC(=O)[C@H](Cc2c[nH]c3ccccc23)NC(=O)[C@H](CC(=O)O)N(C)C(=O)CCC(=O)NCCCOCCOCCOCCCNC(=O)CN2CCN(CC(=O)O)CCN(CC(=O)O)CCN(CC(=O)O)CC2)CSCc2cccc(c2)CSCCNC1=O` [GIP-130, DOTA-Ttds-Nmd-Trp-Trp-Pro-Glu-Leu-[Cys(3MeBn)-Aib-Leu-Ile-AET]] ({X3-Suc}-[NMeD]WWPELC[Aib]LI; linker 7-C via X7), the IC50 was 10 to 79.4 nM.
With `CC[C@H](C)[C@@H]1NC(=O)[C@H](CC(C)C)NC(=O)C(C)(C)NC(=O)[C@@H](NC(=O)[C@H](CC(C)C)NC(=O)[C@H](CCC(=O)O)NC(=O)[C@@H]2CCCN2C(=O)[C@H](Cc2c[nH]c3ccccc23)NC(=O)[C@H](Cc2c[nH]c3ccccc23)NC(=O)[C@H](CC(=O)O)NC(C)=O)CSCc2cccc(c2)CSC[C@@H](C(=O)NCCCOCCOCCOCCCNC(=O)CCC(=O)N[C@@H](CCCCNC(=O)CN2CCN(CC(=O)O)CCN(CC(=O)O)CCN(CC(=O)O)CC2)C(N)=O)NC1=O` [GIP-131, Ac-Asp-Trp-Trp-Pro-Glu-Leu-[Cys(3MeBn)-Aib-Leu-Ile-Cys]-Ttds-Lys(DOTA)-NH2] (Ac-DWWPELC[Aib]LIC-X5; linker 7-11 via mXylylene) the figure was 10 to 79.4 nM; with `CC[C@H](C)[C@@H]1NC(=O)[C@H](CC(C)C)NC(=O)C(C)(C)NC(=O)[C@@H](NC(=O)[C@H](CC(C)(C)C)NC(=O)[C@H](CCC(=O)O)NC(=O)[C@@H]2CCCN2C(=O)[C@H](Cc2c[nH]c3ccccc23)NC(=O)[C@H](Cc2c[nH]c3ccccc23)NC(=O)[C@H](CC(=O)O)NC(C)=O)CSCc2cccc(c2)CSC[C@@H](C(=O)NCCCOCCOCCOCCCNC(=O)CCC(=O)N[C@@H](CCCCNC(=O)CN2CCN(CC(=O)O)CCN(CC(=O)O)CCN(CC(=O)O)CC2)C(N)=O)NC1=O` [GIP-132, Ac-Asp-Trp-Trp-Pro-Glu-Npg-[Cys(3MeBn)-Aib-Leu-Ile-Cys]-Ttds-Lys(DOTA)-NH2] (Ac-DWWPE[tBuAla]C[Aib]LIC-X5; linker 7-11 via mXylylene), 10 to 79.4 nM.
